Columns and labels:
[1] = test system: Winter Wheat Seedlings (cv. Augusta); test: Greenhouse trial: dry weight of seedlings; format: in vivo; conditions: triacontanol 0.1 mg/l, pH 9.0
Method: (§1) In general, greenhouse trials were conducted as follows: eight to twelve seeds were sown per pot in Peat-Lite® Mix and received an average of 100 ml of water per day. After plants had the third true leaf (average), the various formulations were applied to the leaves as a fine mist at air temperatures listed in Table 1. Temperatures above 20° C., preferably 25°-30° C., are preferred.
(§2) The 1-triacontanol formulation most generally used consisted of a concentrate containing 5 mg of 1-triacontanol dissolved in 1 liter of acetone, with 20 ml of the concentrate being further dissolved to 1 liter with water having a pH between 8 and 10, with over a pH of 11 also being effective. The pH was adjusted with aqueous NaOH and the concentrate added just prior to spraying.
(§3) When other plant growth substances were added to the formulations, these were added either to the concentrate in the polar organic solvent or alternatively in the aqueous solution, depending on the solubility of the plant growth substance. All metal salts were added to the water used to spray the 1-triacontanol formulations. After spraying, preferably about four to nine days or more, plants were harvested with roots, and fresh weights were obtained. Plants were then dried in an oven, preferably at a temperature below 100° C., until constant weight was obtained, and dry weight values were obtained for each plot. Subtraction of the dry weights from the fresh weights gave the water uptake weights (water content) of each plot. The weights of the above mentioned seedlings were compared to the control weights to obtain the percent increases.
(§4) It is particularly advantageous to arrange each of the potted plants in size range categories corresponding to the number of replications used. For example, if five replications are employed, plants are divided into five size categories, normally measured by the height of the plants. Treatments are then assigned randomly within each block (size category). This removes the variation due to plant size for statistical purposes, as is well practiced in the art. The resulting data is analyzed using any appropriate means, which may include the least significant difference method (L.S.D. method), Duncan's multiple range test, as used here (Biometrics, 11: 1 (1955)), or other means.

[2] = test system: Watermelon Seedlings (cv. Dixie Queen); test: Greenhouse trial: dry weight of seedlings; format: in vivo; conditions: 1-triacontanol 0.1 mg/liter, pH 9.8; for Dry wt.: per 4 plants
Method: as §1, §2, §3, §4

[3] = test system: Soybean Seedlings (cv. Prize); test: Greenhouse trial: dry weight of seedlings; format: in vivo; conditions: for Dry wt.: per four plants per plot
Method: as §1, §2, §3, §4

[4] = test system: Pea Seedlings (cv. Dark Skin); test: Greenhouse trial: dry weight of seedlings; format: in vivo, peas; conditions: 1-triacontanol 0.1 mg/liter; for Dry wt.: sum of four plants
Method: as §1, §2, §3, §4

[5] = test system: Hybrid Sweet Corn Seedlings (cv. Silver Queen); test: Greenhouse trial: dry weight and water uptake of seedlings after foliar spraying; format: in vivo
Method: as §1, §2, §3, §4

[6] = CaCl2 50 mM, NAA 1.5 μM (Formulation 7)
[7] = CaCl2 5 mM, 1-triacontanol 0.1 mg/liter
[8] = CaCl2 10 mM, 1-triacontanol 0.1 mg/liter
[9] = CaCl2 20 mM, 1-triacontanol 0.1 mg/liter
[10] = CaCl2 50.0 mM, IAA 10 μM (Formulation 14)
[11] = 14-day old seedlings, 1-triacontanol 0.1 mg/liter alone, no plant growth substance (Formulation 2)
[12] = 14-day old seedlings, metal ion 9 mM (none in the last line) with 1-triacontanol 0.1 mg/liter, pH 8 to 10, Formulation 4
[13] = Formulation 4, 1-triacontanol 0.5 mg/liter, 10 mM CaCl2, pH 8.1, test seed first generation (sprayed) vs control first (not sprayed)
[14] = Formulation 4, 1-triacontanol 0.5 mg/liter, 10 mM CaCl2, pH 8.1, test seed second generation (first and second sprayed) vs control second (first and second not sprayed)
[15] = Formulation 4, 1-triacontanol 0.5 mg/liter, 10 mM CaCl2, pH 8.1, test seed second generation (first and second sprayed) vs control second (second was sprayed only)
[16] = Formulation 4, 1-triacontanol 0.5 mg/liter, 10 mM CaCl2, pH 8.1, test seed second generation (first was sprayed only) vs control second (first and second not sprayed)

## CCCCCCCCCCCCCCCCCCCCCCCCCCCCCCO [1-Triacontanol, 1-triacontanol]
[1]; CaCl2 0 mM, no NAA
  Increase (dry weight): 0%
[1]; CaCl2 0 mM, no NAA, average sum of four plants per plot, control 0.513 g
  Dry wt.: 0.520 g
[1]; CaCl2 5 mM, no NAA
  Dry wt.: 0.502 g
  Increase (dry weight): -2%
[1]; CaCl2 10 mM, no NAA
  Dry wt.: 0.682 g
  Increase (dry weight): +33%
[1]; CaCl2 15 mM, no NAA
  Dry wt.: 0.616 g
  Increase (dry weight): +20%
[1]; CaCl2 20 mM, no NAA
  Dry wt.: 0.682 g
  Increase (dry weight): +33%
[1]; CaCl2 25 mM, no NAA
  Dry wt.: 0.708 g
  Increase (dry weight): +38%
[1]; [6]
  Dry wt.: 0.872 g
  Increase (dry weight): +70%
[2]; CaCl2 5 mM, no IAA
  Percent increases (dry weight): +38%
[2]; CaCl2 5 mM, no IAA, sprayed Day 36, harvested Day 45, control 0.61 g
  Dry wt.: 0.84 gm
[2]; CaCl2 10 mM, no IAA
  Percent increases (dry weight): +48%
  Dry wt.: 0.90 gm
[2]; CaCl2 50 mM, IAA 10 μM
  Percent increases (dry weight): +65%
  Dry wt.: 1.01 gm
[3]; CaCl2 3 mM as printed, 1-triacontanol 0.1 mg/liter
  Dry wt.: 1.96 g
[3]; [7]
  Increase (dry weight): +17%
  Dry wt.: 2.30 g
[3]; [8]
  Increase (dry weight): +37%
  Dry wt.: 2.68 g
[3]; [9]
  Increase (dry weight): +35%
  Dry wt.: 2.65 g
[3]; line printed as "Control" but with an increase
  Increase (dry weight): +7%
[4]; CaCl2 0.0 mM, no IAA
  Percent increases (dry weight): -5%
[4]; CaCl2 0.0 mM, no IAA, control 0.83
  Dry wt.: 0.79 gm
[4]; CaCl2 1.0 mM, no IAA
  Percent increases (dry weight): +1%
  Dry wt.: 0.84 gm
[4]; CaCl2 3.0 mM, no IAA
  Percent increases (dry weight): -7%
  Dry wt.: 0.77 gm
[4]; CaCl2 5.0 mM, no IAA
  Percent increases (dry weight): +7%
  Dry wt.: 0.89 gm
[4]; CaCl2 10.0 mM, no IAA
  Percent increases (dry weight): +18%
  Dry wt.: 0.98 gm
[4]; CaCl2 15.0 mM, no IAA
  Percent increases (dry weight): +33%
  Dry wt.: 1.10 gm
[4]; [10]
  Percent increases (dry weight): +46%
  Dry wt.: 1.21 gm
[5]; 1-triacontanol 0.1 mg/liter, Formulation 4, additive 9 mM (none in the last line)
  Increase in dry weight: +21%
[5]; [11]
  Increases, H2O uptake: +16%
  Increases, dry wt.: +20%
[5]; [12]
  % increase (dry weight): +21%
  % increase (water uptake): +16%
[5]; 14-day old seedlings, metal ion 9 mM (none in the last line) with 1-triacontanol 0.1 mg/liter, pH 8 to 10, Formulation 4, control 0.86 g
  Dry weight: 1.04 g
[5]; 14-day old seedlings, metal ion 9 mM (none in the last line) with 1-triacontanol 0.1 mg/liter, pH 8 to 10, Formulation 4, control 8.7 g
  Water uptake: 10.1 g
[5]; 14-day old seedlings, no metal salt, 1-triacontanol 0.1 mg/liter, Formulation 1 as printed
  Increases, H2O uptake: +16%
[5]; [13]
  Increases, H2O uptake: +41%
  Increases, dry wt.: +44%
[5]; [14]
  Increases, H2O uptake: +78%
  Increases, dry wt.: +80%
[5]; [15]
  Increases, H2O uptake: +46%
  Increases, dry wt.: +41%
[5]; [16]
  Increases, H2O uptake: +40%
  Increases, dry wt.: +44%
[5]; foliar, 0.1 ug/mL
  Increases, dry wt.: +20%

From US4470840A, “1-Triacontanol plant growth stimulator formulations” (Biochemical Research Corporation, priority 1981, dated 1984)
